Results taken from BindingDB's records for doi:10.1016/j.ejmech.2020.112602 (Utah State University, 2020).

Columns and labels:
[1] = Inhibition of human Cx43 expressed in Escherichia coli LB2003 cells in medium containing 8 mM K+ and 10 uM IPTG by measuring cell growth after 18 hrs by plate reader
[2] = Inhibition of human Cx26 expressed in Escherichia coli LB2003 cells in medium containing 4 mM K+ and 500 uM IPTG by measuring cell growth after 18 hrs by plate reader

SMILES | IC50 [1] [µM] | IC50 [2] [µM]
NC[C@H]1O[C@H](O[C@H]2[C@H](O)[C@@H](O[C@H]3O[C@H](COCc4ccc(Cl)cc4)[C@@H](OCc4ccc(Cl)cc4)[C@H](N)[C@H]3O)[C@H](N)C[C@@H]2N)[C@H](O)[C@@H](O)[C@@H]1O | 17.1 | –
NC[C@H]1O[C@H](O[C@H]2[C@H](O)[C@@H](O[C@H]3O[C@H](COCc4ccc(F)cc4)[C@@H](OCc4ccc(F)cc4)[C@H](N)[C@H]3O)[C@H](N)C[C@@H]2N)[C@H](O)[C@@H](O)[C@@H]1O | 26.6 | –
NC[C@H]1O[C@H](O[C@H]2[C@H](O)[C@@H](O[C@H]3O[C@H](COc4ccc(-c5nc6ccccc6[nH]5)cc4)[C@@H](O)[C@H](N)[C@H]3O)[C@H](N)C[C@@H]2N)[C@H](O)[C@@H](O)[C@@H]1O | 17.7 | 6
N[C@@H]1[C@@H](O)[C@@H](O[C@@H]2[C@@H](O)[C@H](O[C@H]3O[C@H](CNC(=O)c4ccccc4-c4c5ccc(=O)cc-5oc5cc(O)ccc45)[C@@H](O)[C@H](O)[C@H]3O)[C@@H](N)C[C@H]2N)O[C@H](CO)[C@H]1O | 8.9 | 12.7
CCCCCCCCCCCC(=O)NC[C@H]1O[C@H](O[C@H]2[C@H](O)[C@@H](O[C@H]3O[C@H](CO)[C@@H](O)[C@H](N)[C@H]3O)[C@H](N)C[C@@H]2N)[C@H](O)[C@@H](O)[C@@H]1O | – | 66.7

Continued, values first:

IC50 [1] [µM] | IC50 [2] [µM] | SMILES
4.1 | – | COc1ccc(COC[C@H]2O[C@H](O[C@@H]3[C@@H](O)[C@H](O[C@H]4O[C@H](CN)[C@@H](O)[C@H](O)[C@H]4O)[C@@H](N)C[C@H]3N)[C@H](O)[C@@H](N)[C@@H]2OCc2ccc(OC)cc2)cc1
3.1 | – | Cc1ccc(COC[C@H]2O[C@H](O[C@@H]3[C@@H](O)[C@H](O[C@H]4O[C@H](CN)[C@@H](O)[C@H](O)[C@H]4O)[C@@H](N)C[C@H]3N)[C@H](O)[C@@H](N)[C@@H]2OCc2ccc(C)cc2)cc1
6.2 | – | NC[C@H]1O[C@H](O[C@H]2[C@H](O)[C@@H](O[C@H]3O[C@H](COCc4ccc5ccccc5c4)[C@@H](OCc4ccc5ccccc5c4)[C@H](N)[C@H]3O)[C@H](N)C[C@@H]2N)[C@H](O)[C@@H](O)[C@@H]1O
5.5 | – | NC[C@H]1O[C@H](O[C@H]2[C@H](O)[C@@H](O[C@H]3O[C@H](COCc4cccc(-c5ccccc5)c4)[C@@H](OCc4cccc(-c5ccccc5)c4)[C@H](N)[C@H]3O)[C@H](N)C[C@@H]2N)[C@H](O)[C@@H](O)[C@@H]1O
6.2 | 49.4 | Cc1ccc(OC[C@H]2O[C@H](O[C@@H]3[C@@H](O)[C@H](O[C@H]4O[C@H](CN)[C@@H](O)[C@H](O)[C@H]4O)[C@@H](N)C[C@H]3N)[C@H](O)[C@@H](N)[C@@H]2O)cc1
8.9 | 17.2 | NC[C@H]1O[C@H](O[C@H]2[C@H](O)[C@@H](O[C@H]3O[C@H](COc4ccc(Cl)cc4)[C@@H](O)[C@H](N)[C@H]3O)[C@H](N)C[C@@H]2N)[C@H](O)[C@@H](O)[C@@H]1O
8.6 | 18.6 | N[C@@H]1[C@@H](O)[C@@H](O[C@@H]2[C@@H](O)[C@H](O[C@H]3O[C@H](CNC(=O)CCCc4cc5ccc6cccc7ccc(c4)c5c67)[C@@H](O)[C@H](O)[C@H]3O)[C@@H](N)C[C@H]2N)O[C@H](CO)[C@H]1O
